Data taken from patent US20180028516A1, “METHODS AND DEVICES FOR THE TREATMENT OF OCULAR DISEASES IN HUMAN SUBJECTS” (CLEARSIDE BIOMEDICAL, INC., priority 2012, published 2018).

What was measured:
[1] = Scotopic electroretinography after SCS TA (Example 9); assay type: in vivo, New Zealand White rabbit; details: for Scotopic OdB wave A, Amplitude, Mean / Scotopic OdB wave A, Time, Mean / Scotopic OdB wave B, Amplitude, Mean / Scotopic OdB wave B, Time, Mean: right & left eye
Procedure: In this study, the ocular tolerability and toxicokinetics of suprachoroidal administration of triamcinolone acetonide (TA) using a microneedle in a GLP study in the New Zealand White rabbit.
On Day 0, New Zealand White (NZW) rabbits were administered a single bilateral supraehoroidal injection of vehicle, 3.2 mg (80 μL) or 5.2 mg (130 μL) of TA (Triesence®, Alcoa labs) using a 33 g 750 μm microneedle. Clinical observations, slit lamp biomicroscopy with McDonald-Shadduck scoring, intraocular pressure assessment (IOP), electroretinography (ERG), and systemic exposure were assessed up to 26 weeks post-dose. Animals were sacrificed on Day 1, Week 13, and Week 26 for macroscopic observations, ocular toxicokinetics, and ocular histopathology.

[2] = system: LPS-induced acute posterior uveitis; assay: Aqueous and vitreous humor inflammatory cell counts and protein concentration (Example 13); assay type: in vivo, domestic weanling pigs
Procedure: Pigs were euthanized on study day 3 after clinical scoring, OCT, ERG, and wide-field ocular fundus photography was completed. After euthanasia with an overdose of intravenous barbiturate, both eyes were removed, Aqueous humor (All) was aspirated and a 1 mL sample of vitreous humor (VH) was collected from each eye immediately after euthanasia. The globe was then fixed in Davidson's solution for 24 hours, followed by alcohol. Central, saggital sections of each globe, including the optic nerve, were stained with hematoxylin and eosin and examined by light microscopy. Two pathology-trained observers, masked to the study groups, graded degree of inflammatory infiltrate of the ocular anterior and posterior segments. The grading scale for the anterior and posterior ocular segment used was as follows: 0=no evidence of cellular infiltrate; 1=a few cells infiltrated (mild)−focal; 2=a few cells infiltrated (mild)−diffuse; 3=moderate number of cells infiltrated; and 4=high amount of cellular infiltrate.
After aspiration from the eyes, AH and VH were immediately placed on ice, transferred to the laboratory, then frozen at −80° C. until processing. Samples where thawed at room temperature, vortexed, and total cell counts were performed with a hemocytometer. Total protein concentration was measured using the […] (Pierce BCA Protein Assay Kit, Thermo Scientific Pierce, Rockford, Ill.).
Differences were considered significant at P<0.05.

[3] = Ocular toxicokinetics of TA after suprachoroidal or intravitreal injection (Example 8); assay type: in vivo, pigmented rabbits; details: SCS, 2 mg TA, compared with intravitreal
Procedure: in this study, the total amount of triamcinolone acetonide (TA) delivered into live pigmented rabbit eyes when injected, into the suprachoroidal space using a hollow microneedle or into the vitreous using a standard 30 gauge needle was compared.
On Day 0, pigmented rabbits were injected with either intravitreal or bilateral suprachoroidal injections of 2 mg/100 μl TA Triesence® (TA; Alcon Labs). intravitreal injections were performed using a 30 g needle (Becton-Dickinson) and suprachoroidal injections were performed using a 33 g 750 μm microneedle. The residual amount of TA present in the syringe/needle assembly after injection was determined by RP-HPLC. Clinical observations, slit lamp biomicroscopy with McDonald-Shadduck scoring, intraocular pressure assessment (IOP), electroretinography (ERG), and systemic exposure were assessed up to 120 days post-dose. Animals were sacrificed at 30 minutes, 7 days, 30 days, 60 days, and 120 days for macroscopic observations, ocular toxicokinetics, and ocular histopathology.

[4] = Optical coherence tomography, retinal thickness (Example 13); assay type: in vivo, domestic weanling pigs; details: all groups, prior to or following the injections
Source text: Following wide-field ocular tlindus photography on Days −1, 0, and 3, the central retina was imaged with spectral-domain optical coherence tomography (SD-OCT) (Bioptigen SDOCT EnVisu Ophthalmic Imaging System, Durham, N.C.) using 6 imaging protocols (including rectangular volume scans of 6, 8, and 12 mm, and doppler rectangular volume).

[5] = Intraocular pressure and tolerability in porcine uveitis study (Example 13); assay type: in vivo, domestic weanling pigs
Procedure: Intraocular pressure (IOP) was measured at −6, −4, −1, 0, 1, 2, and 3 days using a TonoVet Tonometer (Care, Finland). In addition, IOP was measured 1, 3, and 6 hours after SCS or IVT injections on Day 0. The measurements were collected without use of topical anesthetic, per manufacturer recommendation. Conditioning of the pigs during acclimation permitted routine ocular examinations and IOP measurements to he done with minimal manual restraint. The tip of the tonometer probe was directed to contact the central cornea and 6 measurements were made consecutively. After the six measurements, the mean IOP was shown on the display providing the IOP that was recorded.

Q: For CC1(C)O[C@@H]2C[C@H]3[C@@H]4CCC5=CC(=O)C=C[C@]5(C)[C@@]4(F)[C@@H](O)C[C@]3(C)[C@]2(C(=O)CO)O1 [TA, triamcinolone acetonide], which “Scotopic OdB wave A, Amplitude, Mean” value ([1]; 3.2 mg TA/eye SCS, Baseline) is on record?
A: −133.2 μV

Q: And the “Scotopic OdB wave A, Time, Mean” value ([1]; 3.2 mg TA/eye SCS, Baseline)?
A: 11.6 ms

Q: What about the “Scotopic OdB wave B, Amplitude, Mean” value ([1]; 3.2 mg TA/eye SCS, Baseline) of the same molecule?
A: 285.8 μV

Q: What about the “Scotopic OdB wave B, Time, Mean” value ([1]; 3.2 mg TA/eye SCS, Baseline) of the same molecule?
A: 42.1 ms

Q: And the “Scotopic OdB wave A, Amplitude, Mean” value ([1]; 3.2 mg TA/eye SCS, Day 1)?
A: −132 μV

Q: And the “Scotopic OdB wave A, Time, Mean” value ([1]; 3.2 mg TA/eye SCS, Day 1)?
A: 11.4 ms

Q: What about the “Scotopic OdB wave B, Amplitude, Mean” value ([1]; 3.2 mg TA/eye SCS, Day 1) of the same molecule?
A: 276.5 μV

Q: And the “Scotopic OdB wave B, Time, Mean” value ([1]; 3.2 mg TA/eye SCS, Day 1)?
A: 47.5 ms

Q: And the “Scotopic OdB wave A, Amplitude, Mean” value ([1]; 3.2 mg TA/eye SCS, Week 13)?
A: −132.6 μV

Q: What about the “Scotopic OdB wave A, Time, Mean” value ([1]; 3.2 mg TA/eye SCS, Week 13) of the same molecule?
A: 11.7 ms

Q: And the “Scotopic OdB wave B, Amplitude, Mean” value ([1]; 3.2 mg TA/eye SCS, Week 13)?
A: 299.8 μV

Q: And the “Scotopic OdB wave B, Time, Mean” value ([1]; 3.2 mg TA/eye SCS, Week 13)?
A: 51.1 ms

Q: What about the “Scotopic OdB wave A, Amplitude, Mean” value ([1]; 5.2 mg TA/eye SCS, Baseline) of the same molecule?
A: −137.3 μV

Q: What about the “Scotopic OdB wave A, Time, Mean” value ([1]; 5.2 mg TA/eye SCS, Baseline) of the same molecule?
A: 11.7 ms

Q: And the “Scotopic OdB wave B, Amplitude, Mean” value ([1]; 5.2 mg TA/eye SCS, Baseline)?
A: 286.4 μV

Q: And the “Scotopic OdB wave B, Time, Mean” value ([1]; 5.2 mg TA/eye SCS, Baseline)?
A: 42.3 ms

Q: What about the “Scotopic OdB wave A, Amplitude, Mean” value ([1]; 5.2 mg TA/eye SCS, Day 1) of the same molecule?
A: −130.8 μV

Q: And the “Scotopic OdB wave A, Time, Mean” value ([1]; 5.2 mg TA/eye SCS, Day 1)?
A: 11.4 ms

Q: And the “Scotopic OdB wave B, Amplitude, Mean” value ([1]; 5.2 mg TA/eye SCS, Day 1)?
A: 265.7 μV

Q: And the “Scotopic OdB wave B, Time, Mean” value ([1]; 5.2 mg TA/eye SCS, Day 1)?
A: 43.1 ms

Q: What about the “Scotopic OdB wave A, Amplitude, Mean” value ([1]; 5.2 mg TA/eye SCS, Week 13) of the same molecule?
A: −117.1 μV

Q: And the “Scotopic OdB wave A, Time, Mean” value ([1]; 5.2 mg TA/eye SCS, Week 13)?
A: 12.6 ms

Q: And the “Scotopic OdB wave B, Amplitude, Mean” value ([1]; 5.2 mg TA/eye SCS, Week 13)?
A: 264.6 μV

Q: What about the “Scotopic OdB wave B, Time, Mean” value ([1]; 5.2 mg TA/eye SCS, Week 13) of the same molecule?
A: 45.7 ms

Q: And the “effect on a-wave or b-wave implicit time or amplitude (scotopic ERG)” value ([1]; 3.2 or 5.2 mg TA SCS)?
A: no administration or TA-related effect

Q: And the “Mean AH cell counts compared with Groups 1, 5 or 6” value ([2]; Group 3: low dose TA SCS)?
A: not significantly different

Q: What about the “Mean VH cell count compared with Group 1 and Group 4” value ([2]; Group 3: low dose TA SCS) of the same molecule?
A: significantly higher

Q: What about the “Mean AH cell counts compared with Groups 1, 5 or 6” value ([2]; Group 4: high dose TA SCS) of the same molecule?
A: not significantly different

Q: What about the “mean VH cell counts compared with Group 1, the untreated control” value ([2]; Group 4: high dose TA SCS) of the same molecule?
A: not significantly different

Q: And the “mean vitreous humor protein concentrations compared with Groups 3, 5 and 6” value ([2]; Group 4: high dose TA SCS)?
A: significantly lower

Q: And the “Mean AH cell counts compared with Group 1” value ([2]; Group 5: low dose TA IVT)?
A: significantly higher

Q: And the “Mean VH cell count compared with Group 1 and Group 4” value ([2]; Group 5: low dose TA IVT)?
A: significantly higher

Q: And the “Mean AH cell counts compared with Group 1” value ([2]; Group 6: high dose TA IVT)?
A: significantly higher

Q: What about the “mean aqueous humor protein concentration, differences among the groups” value ([2]; all groups) of the same molecule?
A: no significant differences

Q: And the “ratio of TA Lens:Chroroid and Lens:Retina” value [3]?
A: much lower

Q: And the “retinal thickness (SD-OCT), difference between groups” value [4]?
A: no significant difference

Q: And the “adverse effects, increased IOP, procedural or acute drug toxicity” value ([5]; TA into the SCS, porcine eyes)?
A: no adverse effects, increased IOP, or evidence of procedural or acute drug toxicity

Q: What about the “tolerability of TA delivered to the SCS using microneedles” value ([5]; up to three days after injection in porcine eyes) of the same molecule?
A: tolerated with an acceptable safety profile
